Source: patent US8742156B2 (priority 2010, dated 2014)
Structures can show the parent of a compound that is named as a salt. Where two headings read alike, the source gives them in different places.

Assays:
[1] = tested on: H1N1 virus (A/HK/54/98 (Tamiflu-sensitive strain)); experiment: Viral infection of MDCK cells, TCID50 viral titer, H1N1 (Tamiflu-sensitive); assay type: cell-based, Human influenza H1N1 virus; settings: for TCID50/ml H1N1 virus: m.o.i of 2, supernatant 48-hour post-infection; for viral titers of Tamiflu-sensitive (Tami-S) H1N1 virus decreased (fold): FIG. 1, multiplicity of infection of 0.2, 48-hour post-infection
[2] = tested on: H3N2 (A/H3N2/1174/99); experiment: Viral infection of MDCK cells, TCID50 viral titer, H3N2; assay type: cell-based, influenza H3N2 virus; settings: for TCID50/ml H3N2 virus: m.o.i of 2, supernatant 48-hour post-infection
[3] = tested on: MDCK cells; experiment: Cell Viability Test (MTT); assay type: cell-based, canine; settings: 50 uM, 72 hours
Description: This compound was obtained from the National Cancer Institute, USA. Cell Viability Test: MDCK cells were seeded at 2×10^6/ml in a 96-well plate for 16-24 hours. Compound 58 (50 uM) was added to the cells. DMSO was added to the cells as a control. Cells were incubated at 37° C. and 5% CO2 for 72 hours, and then Thiazolyl Blue Tetrazolium Bromide (MTT) was added to a final concentration of 0.1 mg/ml. After two hours, the culture supernatant was removed and each well was replenished with isopropanol. The MTT metabolic product, formazan, was dissolved in isopropanol for five minutes with shaking. The optical densities of formazan and background were measured at 560 nm and 670 nm, respectively.

[4] = tested on: H9N2 (A/Quail/HK/G1/97); assay type: cell-based, influenza H9N2 virus; settings: for TCID50/ml H9N2 virus: m.o.i of 2, supernatant 48-hour post-infection

Row | SMILES | TCID50/ml H1N1 virus ([1]; 10 μM) | TCID50/ml H1N1 virus ([1]; 20 μM) | TCID50/ml H1N1 virus ([1]; 50 μM) | inhibitory effects against Tami-S H1N1 virus ([1]; FIG. 1, multiplicity of infection of 0.2) | viral titers of Tamiflu-sensitive (Tami-S) H1N1 virus decreased (fold) [1] | inhibition of replication of H1N1 virus ([1]; TCID50 results, Table 1A) | TCID50/ml H3N2 virus ([2]; 10 μM) | TCID50/ml H3N2 virus ([2]; 20 μM) | TCID50/ml H3N2 virus ([2]; 50 μM) | inhibition of replication of H3N2 virus ([2]; TCID50 results, Table 1A) | cytotoxicity in MDCK cells compared with DMSO [3] | Cytotoxicity index ([3]; MDCK cells, MTT, relative to DMSO (1.0)) | TCID50/ml H9N2 virus ([4]; 10 μM) | TCID50/ml H9N2 virus ([4]; 20 μM) | TCID50/ml H9N2 virus ([4]; 50 μM) | inhibition of replication of H9N2 virus ([4]; TCID50 results, Table 1A) | TCID50/ml H1N1 virus ([1]; 100 μM) | virus level suppressed (fold) ([1]; H1N1 tamiflu-sensitive, Table 1B (100 μM))
1 | N=C(Nc1ccccc1)SCCCSC(=N)Nc1ccccc1 [Compound 58, Carbamimidothioic acid, phenyl-, 1,3-propanediyl ester, dihydrobromide] | 2.90 × 10^4 TCID50/ml | 1.82 × 10^4 TCID50/ml | 4.53 × 10^2 TCID50/ml | potent inhibitory effects | 5 fold | inhibits the replication | 4.61 × 10^4 TCID50/ml | 1.72 × 10^4 TCID50/ml | 7.24 × 10^3 TCID50/ml | inhibits the replication | does not display cytotoxicity | 0.916 | 1.14 × 10^3 TCID50/ml | 4.16 × 10^2 TCID50/ml | 1.90 × 10^2 TCID50/ml | inhibits the replication | – | –
2 | O=C(Nc1ccc(Nc2ccncc2)cc1)c1ccc(Nc2ccnc3ccccc23)cc1[N+](=O)[O-] [Compound 73, 2-nitro-N-[4-(pyridin-4-ylamino)phenyl]-4-(quinolin-4-ylamino)benzamide] | – | – | – | – | – | – | – | – | – | – | – | – | – | – | – | – | 2.28 × 10^3 TCID50/ml | around 10 fold
3 | CCOC(=O)C1=C[C@@H](OC(CC)CC)[C@H](NC(C)=O)[C@@H](N)C1 [Tamiflu, oseltamivir, reference compound] | – | – | 1.45 × 10^4 TCID50/ml | – | 8 fold | – | – | – | 7.24 × 10^3 TCID50/ml | – | – | – | – | – | 9.00 × 10^1 TCID50/ml | – | 1.52 × 10^3 TCID50/ml | –
